Legend:
Sphaerotheca fuliginea = assay: Cucumber Powdery Mildew (CPM) protectant test in the greenhouse; type: in vivo; details: 300 g/ha, 100 is total disease control, 0 is no disease control
Summary of the method: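 Compounds in acetone-methanol-water (1:1:2) sprayed onto cucumber cv. "Bush Champion" (cotyledons plus one true leaf, 13 days old), dried 4 h. Inoculated 1 day later with 2×10^5 spores/ml; disease control (%) rated after 7 days in greenhouse.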

Pyricularia oryzae = assay: whole plant or invertebrate; type: in vivo; details: protectant, 300 g/ha, greenhouse; 100 is total disease control, 0 is no disease control
Two-Spotted Spider Mite = assay: Protocol 1 Two-Spotted Spider Mite (MTA) foliar spray test; type: in vivo, Tetranychus urticae; details: Protocol 1, DOSE 150; percentage of mites killed 1-day post-treatment
Method: A test solution containing 1250 parts per million (ppm) was prepared by dissolving the test compound in […] of a second solvent (acetone: water, 1:1) to give an acetone:water: methanol system of 50: 40:10.
The enclosed spraying chamber consisted of a single spray nozzle mounted on a boom moving at a fixed speed and distance over stationary targets. The vertical distance from the nozzle tip to the targets was adjusted to give rates varying from 150 g/ha to 600 g/ha
A pad of moistened cotton was placed in a Petri dish. A 1-inch square section cut from a fully expanded primary lima bean (Phaseolus limensis) leaf was positioned bottom side up on the moist cotton. The leaf square was infested with approximately 50 adult female mites. The dishes were sprayed with the test solutions and held at 27° C. for mortality determination 1-day post-treatment. The percentage of mites killed were rated from 100% (all dead) to 0% (all alive).

Structure (SMILES)	Cucumber Powdery Mildew (CPM) protectant fungicide data, percent control (Sphaerotheca fuliginea)	Rice Blast (RB) protectant fungicide data, percent control (Pyricularia oryzae)	MTA (Two-Spotted Spider Mite)
CCCCCCCCn1nc(-c2ccc(Cl)cc2)ncc1=O [Compound 259]	75 percent control	90 percent control	0%
COC(=O)C(=O)N1CC(=O)N(CC(F)(F)F)N=C1c1cc(Cl)cc(Cl)c1 [Compound 123]	50 percent control	95 percent control	0%
O=C1CN(Cc2ccc(Cl)s2)C(c2ccc(Cl)cc2)=NN1Cc1ccc(Cl)s1 [Compound 63]			0%
C=CCOC(=O)N1CC(=O)N(CCCC)N=C1c1cc(Cl)cc(Cl)c1 [Compound 135]	50 percent control	90 percent control	43%
CCCCN1N=C(c2cccc(Cl)c2)NCC1=O [Compound 110]	90 percent control	99 percent control	100%
C#CCOC(=O)N1CC(=O)N(CCCC)N=C1c1cc(Cl)cc(Cl)c1 [Compound 133]	0 percent control	80 percent control	0%
O=C1CNC(c2cc3ccccc3s2)=NN1CC(F)(F)F [Compound 163]	0 percent control	90 percent control	100%
CCCCCCCCCCn1nc(-c2ccc(Cl)cc2)ncc1=O [Compound 260]	0 percent control	75 percent control	0%
C[Si](C)(C)Cn1nc(-c2ccc(Cl)cc2)ncc1=O [Compound 265]	90 percent control	85 percent control	0%
CCN1N=C(c2ccc(Cl)c(Cl)c2)NCC1=O [Compound 100]	80 percent control	99 percent control	25%
CCCCN1N=C(c2ccc(F)c(F)c2)NCC1=O [Compound 69]	80 percent control	95 percent control	68%
O=c1cnc(-c2ccc(Cl)cc2)nn1Cc1ccc(Cl)s1 [Compound 266]	50 percent control	90 percent control	0%
O=C1CNC(c2cc(Cl)ccc2Cl)=NN1CC(F)(F)F [Compound 70]	80 percent control	80 percent control	71%
CCCCn1nc(-c2cc(Cl)cc(Cl)c2)ncc1=O [Compound 271]	50 percent control	99 percent control	93%
CCCCCCn1nc(-c2ccc(Cl)cc2)ncc1=O [Compound 262]	80 percent control	85 percent control	0%
CCCCN1N=C(c2ccc(Cl)c(Cl)c2)NCC1=O [Compound 101]	80 percent control	100 percent control	0%
O=C1CNC(c2cc(Cl)cc(Cl)c2)=NN1CC1CC1 [Compound 109]	95 percent control	100 percent control	90%
C=COC(=O)N1CC(=O)N(CCCC)N=C1c1cc(Cl)cc(Cl)c1 [Compound 127]	50 percent control	95 percent control	95%
Cc1cccc(N2N=C(c3cccc(Cl)c3)NCC2=O)c1 [Compound 112]	80 percent control	85 percent control	0%

Structure (SMILES)	Cucumber Powdery Mildew (CPM) protectant fungicide data, percent control (Sphaerotheca fuliginea)	Rice Blast (RB) protectant fungicide data, percent control (Pyricularia oryzae)	MTA (Two-Spotted Spider Mite)
C#CCN1CC(=O)N(CC(F)(F)F)N=C1c1cccc(C(F)(F)F)c1 [Compound 89]	0 percent control	75 percent control	
O=C1CN(CC2CC2)C(c2ccc(F)c(Br)c2)=NN1CC1CC1 [Compound 219]	75 percent control	50 percent control	
O=C1CNC(c2ccccc2F)=NN1CC(F)(F)F [Compound 96]	75 percent control	50 percent control	
CCCCn1nc(-c2cccc(Cl)c2)ncc1=O [Compound 277]	0 percent control	95 percent control	
O=C1CNC(c2ccc(Cl)c(Cl)c2)=NN1Cc1ccccc1 [Compound 103]	0 percent control	90 percent control	23%
CCCCCN1N=C(c2ccc(Cl)cc2)NCC1=O [Compound 54]	85 percent control	99 percent control	
CCOC(=O)CN1N=C(c2ccc(F)c(F)c2)NCC1=O [Compound 125]	50 percent control	50 percent control	
CCCCN1N=C(C)NC(c2ccc(C)cc2)C1=O (centres unmarked) [Compound 75]	85 percent control	0 percent control	
CCCCCCCCCCN1N=C(c2ccc(Cl)cc2)NCC1=O [Compound 57]	0 percent control	50 percent control	
O=C1CNC(c2ccc(F)c(F)c2)=NN1CC(F)(F)F [Compound 98]	75 percent control	85 percent control	
N#Cc1cccc(C2=NN(CC(F)(F)F)C(=O)CN2)c1 [Compound 176]	50 percent control	50 percent control	
Cc1cccc(C2=NN(CC(F)(F)F)C(=O)CN2)c1 [Compound 154]	75 percent control	0 percent control	
CCOC(=O)N1C(c2cc(Cl)cc(Cl)c2)=NN(CC(F)(F)F)C(=O)C1OC (centres unmarked) [Compound 214]	85 percent control	50 percent control	
O=C1CNC(c2cc(Cl)cc(Cl)c2)=NN1 [Compound 64]	0 percent control	50 percent control	
O=C1CNC(c2c(Cl)cncc2Cl)=NN1CC(F)(F)F [Compound 159]	0 percent control	85 percent control	
CCCCn1nc(-c2ccc(Cl)c(Cl)c2)ncc1=O [Compound 270]	95 percent control	100 percent control	0%
CCC#CCN1CC(=O)N(CC#CCC)N=C1c1ccc(Cl)c(Cl)c1 [Compound 209]	0 percent control	75 percent control	
CCCCN1N=C(c2sc(C)nc2C(F)(F)F)NCC1=O [Compound 68]	50 percent control	0 percent control	
CCCCOc1ccc(-c2ncc(=O)n(CCC)n2)cc1 [Compound 280]	0 percent control	50 percent control	

Source: patent US7494996B2 (priority 2000, dated 2009)
